This is an account of results in publication PMC8286840, “Identifying SARS-CoV-2 antiviral compounds by screening for small molecule inhibitors of Nsp3 papain-like protease” (Biochemical Journal, 2021).

Each structure is given as a SMILES string. Where a name gives a salt, the structure may show the parent alone. Read-outs that look alike come from different tables or passages of the source.

Test [1] concerns the target T1, SARS-CoV-2 PLpro (nsp3 1564–1878) (Severe acute respiratory syndrome coronavirus 2, UniProt P0DTD1). The test is described as follows: biochemical. Set-up: FRET-quenched peptide (Pro3) cleavage by PLpro, 10 min pre-incubation, slope over 20 min, normalised to no-compound control. Conditions: low concentration screen, read-out: % of control remaining.
The target in test [2] is T1, SARS-CoV-2 PLpro (nsp3 1564–1878). Description: biochemical. Set-up: FRET-quenched peptide (Pro3) cleavage by PLpro, 10 min pre-incubation, slope over 20 min, normalised to no-compound control. Conditions: high concentration screen, read-out: % of control remaining.
Method: The plates were organized with columns 3–22 containing the compounds; the remaining columns were used for reaction controls including substrate only and substrate with enzyme but no compound (Figure 3Aii). The PLpro enzyme was pre-incubated with the compounds for 10 min, and then the reaction was initiated by the addition of substrate. […] We incubated the inhibitors with PLpro before the enzymatic reaction so that the slow-binding inhibitors will not be missed out [21]. […] Fluorescence was read on a Spark multimode microplate reader (Tecan) with an excitation wavelength at 330 nm and emission wavelength at 420 nm. […] An amount of 5 µl of the enzyme was pre-incubated with compounds for 10 min before the addition of 15 µl substrate. Fluorescence was monitored at 2 min for 20 min with 3 min intervals giving a total of seven readings.

Take `Cc1nc(C#Cc2cccnc2)cs1` [MTEP (hydrochloride)]: the remaining activity at 1.25 µM in test [1] (Well no.=7283) was 92.5%. For the same compound, the remaining activity at 3.75 µM in test [2] (Well no.=7283) is 94.9%.
`C[C@@H](Oc1cc(-c2cnn(C3CCNCC3)c2)cnc1N)c1c(Cl)ccc(F)c1Cl` [Crizotinib]: the remaining activity at 1.25 µM in test [1] (Well no.=5612) came to 99.8%. The remaining activity at 3.75 µM in test [2] (Well no.=5612) came to 101%.
Take `CCCCCCCCCCCCCCC(F)C(=O)O` (centres unmarked) [2-Fluoropalmitic acid]: the remaining activity at 1.25 µM in test [1] (Well no.=4355) is 99.2%. Moreover, the remaining activity at 3.75 µM in test [2] (Well no.=4355) came out at 97%.
Consider `COC(=O)[C@H](CCSC)NC(=O)c1ccc(NC[C@@H](N)CS)cc1-c1ccccc1` [FTI-277 (hydrochloride)], for which, in test [1] (Well no.=8508), the remaining activity at 1.25 µM came out at 101%. The remaining activity at 3.75 µM in test [2] (Well no.=8508) was found to be 102%.
As for `CCn1cc(-c2ccc3c(c2)CCN3C(=O)Cc2cccc(OC(F)(F)F)c2)c2c(N)ncnc21` [RIPK1-IN-7], in test [1] (Well no.=6824), the remaining activity at 1.25 µM turned out to be 94.8%. In test [2] (Well no.=6824), the remaining activity at 3.75 µM was found to be 94.4%.
Turning to `O=C(O)CCCC/C=C\C[C@@H](O)/C=C/C=C/C=C\[C@@H](O)CCCC(=O)O` [20-Carboxy-leukotriene B4], the remaining activity at 1.25 µM in test [1] (Well no.=4427) was found to be 94.3%. Also, the remaining activity at 3.75 µM in test [2] (Well no.=4427) was found to be 98.4%.
Turning to `CN(C)C(N)=NCCC[C@H](N)C(=O)O` [Asymmetric dimethylarginine], the remaining activity at 1.25 µM in test [1] (Well no.=7119) was determined as 103%. Besides, the remaining activity at 3.75 µM in test [2] (Well no.=7119) worked out at 102%.
`CCCc1c(-c2ccc(O)cc2)nn(-c2ccc(O)cc2)c1-c1ccc(O)cc1` [1,3,5-tris(4-hydroxyphenyl)-4-propyl-1H-pyrazole]: the remaining activity at 1.25 µM in test [1] (Well no.=468) came out at 105%. The remaining activity at 3.75 µM in test [2] (Well no.=468) turned out to be 109%.
As for `CN(C)CC(C)(C)CNc1nn2c(-c3ccccc3)nnc2cc1C1CCC1` [Akt-I-1], the remaining activity at 1.25 µM in test [1] (Well no.=2707) was determined as 107%. For the same compound, the remaining activity at 3.75 µM in test [2] (Well no.=2707) worked out at 106%.
Take `CCCCCC#CC[C@@H](O)/C=C/C=C/C=C\[C@@H](O)CCCC(=O)O` [14,15-Dehydroleukotriene B4]: the remaining activity at 1.25 µM in test [1] (Well no.=4518) worked out at 97.4%. In addition, the remaining activity at 3.75 µM in test [2] (Well no.=4518) was 94.4%.
As for `COc1cc(C(O)CO)ccc1OS(=O)(=O)O` (centres unmarked) [MHPG sulfate potassium], the remaining activity at 1.25 µM in test [1] (Well no.=710) is 93%. The remaining activity at 3.75 µM in test [2] (Well no.=710) came out at 90.8%.
With `Cc1cncc(CN2CCC(=C3c4ccc(Cl)cc4CCc4cccnc43)CC2)c1` [Rupatadine (Fumarate)], in test [1] (Well no.=7665), the remaining activity at 1.25 µM came out at 98.2%. In addition, in test [2] (Well no.=7665), the remaining activity at 3.75 µM stood at 102%.
For `N[C@@H](Cc1ccc(O)c(Cl)c1)C(=O)O` [3-Chloro-L-tyrosine], in test [1] (Well no.=7491), the remaining activity at 1.25 µM came to 101%. The remaining activity at 3.75 µM in test [2] (Well no.=7491) came to 101%.
In the case of `C[C@@H]1CC[C@@]2(OC1)O[C@H]1C[C@H]3[C@@H]4CC=C5C[C@@H](O)CC[C@]5(C)[C@H]4CC[C@]3(C)[C@H]1[C@@H]2C` [Diosgenin], in test [1] (Well no.=5192), the remaining activity at 1.25 µM stood at 96.6%. In test [2] (Well no.=5192), the remaining activity at 3.75 µM stood at 94.9%.
For the compound `CCCCCCCCCCCCCCC[C@H](O)[C@H](N)CO` (racemic) [DL-erythro-Dihydrosphingosine], in test [1] (Well no.=628), the remaining activity at 1.25 µM turned out to be 95.5%. Besides, the remaining activity at 3.75 µM in test [2] (Well no.=628) turned out to be 93.6%.
As for `NCCCP(=O)(O)O` [3-Aminopropylphosphonic acid], the remaining activity at 1.25 µM in test [1] (Well no.=357) stood at 90.6%. Moreover, the remaining activity at 3.75 µM in test [2] (Well no.=357) stood at 93.7%.
Consider `CC(=O)C1=C(O)C=C2Oc3c(C(C)=O)c(O)c(C)c(O)c3[C@@]2(C)C1=O` [(+)-Usnic acid], for which, in test [1] (Well no.=3394), the remaining activity at 1.25 µM stood at 98.2%. Besides, the remaining activity at 3.75 µM in test [2] (Well no.=3394) came out at 102%.
For the compound `O=C(c1cc(S(=O)(=O)Nc2ccccc2F)c(F)cc1Cl)N1CCN2CCC[C@@H]2C1` [ABT-639], in test [1] (Well no.=7880), the remaining activity at 1.25 µM was 94.2%. Also, the remaining activity at 3.75 µM in test [2] (Well no.=7880) came out at 95.4%.
As to `Cc1ccc(C)c(OCCCC(C)(C)C(=O)O)c1` [Gemfibrozil], in test [1] (Well no.=2174), the remaining activity at 1.25 µM was 95.4%. Moreover, the remaining activity at 3.75 µM in test [2] (Well no.=2174) came to 98.7%.
